For orientation: mass density means mass per unit of volume. A word on the refractive index: it is the speed of light in vacuum divided by its phase velocity in the sample.

The values that follow come from the NIST ThermoML archive (doi:10.1021/acs.jced.5b00918).

Numbers after ± are expanded uncertainties.

The conditions of series [1]: 101.33 kPa, Buoyancy - hydrostatic balance.
A short description of series [2]: refractive index (Na D-line) (dimensionless). The conditions noted are these: 101.33 kPa, Liquid, Standard Abbe refractometry.

Take `Oc1ccc(O)cc1` [1,4-benzenediol]: the mass density in series [1] (293.2 K, Crystal) came to 1332 ± 3 kg/m3.
Consider `CCCCCCCCO` [octan-1-ol], for which, in series [1] (293.2 K, Liquid), the mass density came out at 823.6 ± 0.3 kg/m3. In series [2] (293.2 K), the refractive index is listed as 1.4288 ± 0.0005.
For `CCCOC(C)=O` [propyl ethanoate] the same measures were 889 ± 2 kg/m3 and 1.3842 ± 0.0005.
On to `Oc1ccccc1` [phenol], for which, in series [1] (314.5 K, Liquid), the mass density is on record as 1058.1 ± 0.3 kg/m3. The refractive index in series [2] (314.5 K) worked out at 1.54182 ± 0.00051.
On to `CCCCC(C)=O` [2-hexanone], for which the mass density in series [1] (293.2 K, Liquid) is recorded as 811 ± 2 kg/m3. Besides, the refractive index in series [2] (293.2 K) stood at 1.40065 ± 0.00054.
